In ChEMBL document CHEMBL1137954, “Carbonic anhydrase inhibitors: inhibition of the tumor-associated isozyme IX with fluorine-containing sulfonamides. The first subnanomolar CA IX inhibitor discovered” (Bioorg Med Chem Lett, 2004):

Tests used:
Carbonic anhydrase 9 = Carbonic anhydrase 9 (Homo sapiens, UniProt Q16790)
Description: Inhibitory activity against human carbonic anhydrase IX

Carbonic anhydrase 1 = Carbonic anhydrase 1 (Homo sapiens, UniProt P00915)
Description: Inhibitory activity against human carbonic anhydrase I

Carbonic anhydrase 2 = Carbonic anhydrase 2 (Homo sapiens, UniProt P00918)
Description: Inhibitory activity against human carbonic anhydrase II

Sequence of Carbonic anhydrase 1 (P00915 whole entry): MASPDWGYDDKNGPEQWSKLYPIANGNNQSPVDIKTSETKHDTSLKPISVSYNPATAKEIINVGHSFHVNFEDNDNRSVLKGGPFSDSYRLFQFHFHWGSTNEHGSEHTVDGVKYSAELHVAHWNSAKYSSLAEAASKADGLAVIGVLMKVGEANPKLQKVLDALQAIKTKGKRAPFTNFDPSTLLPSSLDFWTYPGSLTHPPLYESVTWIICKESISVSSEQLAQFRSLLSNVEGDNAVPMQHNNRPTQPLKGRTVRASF

Work on `NS(=O)(=O)c1ccc(CNS(=O)(=O)c2c(F)c(F)cc(F)c2F)cc1` yielded a Ki (Carbonic anhydrase 9) of 0.0085 µM, a Ki (Carbonic anhydrase 1) of 0.86 µM and a Ki (Carbonic anhydrase 2) of 0.012 µM.

Work on `NS(=O)(=O)c1ccc(CCNS(=O)(=O)c2c(F)c(F)cc(F)c2F)cc1` yielded a Ki (Carbonic anhydrase 9) of 0.007 µM, a Ki (Carbonic anhydrase 1) of 0.75 µM and a Ki (Carbonic anhydrase 2) of 0.009 µM.

`NS(=O)(=O)c1ccc(CNS(=O)(=O)c2ccc(NC(=O)c3c(F)c(F)cc(F)c3F)cc2)cc1` was tested, and the Ki (Carbonic anhydrase 1) was 6.1 µM and the Ki (Carbonic anhydrase 2) was 0.015 µM.

Compound `NS(=O)(=O)c1nnc(NS(=O)(=O)c2c(F)c(F)cc(F)c2F)s1` has a Ki (Carbonic anhydrase 9) of 0.0043 µM, a Ki (Carbonic anhydrase 1) of 0.013 µM and a Ki (Carbonic anhydrase 2) of 0.0007 µM.

For `NS(=O)(=O)c1ccc(CNC(=O)c2c(F)c(F)cc(F)c2F)cc1`, the Ki (Carbonic anhydrase 9) was 0.0095 µM, the Ki (Carbonic anhydrase 1) was 0.98 µM and the Ki (Carbonic anhydrase 2) was 0.013 µM.

`NS(=O)(=O)c1ccc(NC(=O)c2c(F)c(F)cc(F)c2F)c(Cl)c1` showed a Ki (Carbonic anhydrase 9) of 0.016 µM, a Ki (Carbonic anhydrase 1) of 1.08 µM and a Ki (Carbonic anhydrase 2) of 0.076 µM.

`NS(=O)(=O)c1ccc(NC(=O)c2c(F)c(F)cc(F)c2F)c(F)c1` gave a Ki (Carbonic anhydrase 9) of 0.024 µM, a Ki (Carbonic anhydrase 1) of 0.76 µM and a Ki (Carbonic anhydrase 2) of 0.0015 µM.

For `NS(=O)(=O)c1ccc(NC(=O)c2c(F)c(F)cc(F)c2F)c(Br)c1`, the Ki (Carbonic anhydrase 9) was 0.0048 µM, the Ki (Carbonic anhydrase 1) was 1.87 µM and the Ki (Carbonic anhydrase 2) was 0.084 µM.

In the case of `NS(=O)(=O)c1ccccc1NC(=O)c1c(F)c(F)cc(F)c1F`, the Ki (Carbonic anhydrase 9) is reported as 0.0095 µM, the Ki (Carbonic anhydrase 1) is reported as 1.5 µM and the Ki (Carbonic anhydrase 2) is reported as 0.038 µM.

Compound `NS(=O)(=O)c1nnc(NC(=O)c2c(F)c(F)cc(F)c2F)s1` has a Ki (Carbonic anhydrase 9) of 0.0126 µM, a Ki (Carbonic anhydrase 1) of 0.25 µM and a Ki (Carbonic anhydrase 2) of 0.0021 µM.

Compound `NS(=O)(=O)c1ccc(NC(=O)c2c(F)c(F)cc(F)c2F)cc1` has a Ki (Carbonic anhydrase 9) of 0.0152 µM, a Ki (Carbonic anhydrase 1) of 0.975 µM and a Ki (Carbonic anhydrase 2) of 0.016 µM.

`Cn1nc(S(N)(=O)=O)s/c1=N\C(=O)c1c(F)c(F)cc(F)c1F` was tested, and the Ki (Carbonic anhydrase 9) was 0.0105 µM, the Ki (Carbonic anhydrase 1) was 0.27 µM and the Ki (Carbonic anhydrase 2) was 0.0014 µM.

`NS(=O)(=O)c1ccc(CCNS(=O)(=O)c2ccc(NC(=O)c3c(F)c(F)cc(F)c3F)cc2)cc1` gave a Ki (Carbonic anhydrase 9) of 0.0076 µM, a Ki (Carbonic anhydrase 1) of 6 µM and a Ki (Carbonic anhydrase 2) of 0.013 µM.

`NS(=O)(=O)c1cccc(NC(=O)c2c(F)c(F)cc(F)c2F)c1` was tested, and the Ki (Carbonic anhydrase 9) was 0.0008 µM, the Ki (Carbonic anhydrase 1) was 1.7 µM and the Ki (Carbonic anhydrase 2) was 0.021 µM.

`NS(=O)(=O)c1ccc(CCNC(=O)c2c(F)c(F)cc(F)c2F)cc1` was tested, and the Ki (Carbonic anhydrase 9) was 0.0073 µM, the Ki (Carbonic anhydrase 1) was 0.9 µM and the Ki (Carbonic anhydrase 2) was 0.012 µM.

In the case of `NS(=O)(=O)c1ccc(NS(=O)(=O)c2ccc(NC(=O)c3c(F)c(F)cc(F)c3F)cc2)cc1`, the Ki (Carbonic anhydrase 9) is reported as 0.0032 µM, the Ki (Carbonic anhydrase 1) is reported as 6.3 µM and the Ki (Carbonic anhydrase 2) is reported as 0.019 µM.
